Experiment [1] addresses T1, Disintegrin and metalloproteinase domain-containing protein 17 (Homo sapiens, UniProt P78536). Put plainly: Inhibition of recombinant human TNF-alpha converting enzyme (TACE).
The target in another experiment is T2, Interstitial collagenase (Homo sapiens, UniProt P03956).
T2 sequence (P03956 whole entry): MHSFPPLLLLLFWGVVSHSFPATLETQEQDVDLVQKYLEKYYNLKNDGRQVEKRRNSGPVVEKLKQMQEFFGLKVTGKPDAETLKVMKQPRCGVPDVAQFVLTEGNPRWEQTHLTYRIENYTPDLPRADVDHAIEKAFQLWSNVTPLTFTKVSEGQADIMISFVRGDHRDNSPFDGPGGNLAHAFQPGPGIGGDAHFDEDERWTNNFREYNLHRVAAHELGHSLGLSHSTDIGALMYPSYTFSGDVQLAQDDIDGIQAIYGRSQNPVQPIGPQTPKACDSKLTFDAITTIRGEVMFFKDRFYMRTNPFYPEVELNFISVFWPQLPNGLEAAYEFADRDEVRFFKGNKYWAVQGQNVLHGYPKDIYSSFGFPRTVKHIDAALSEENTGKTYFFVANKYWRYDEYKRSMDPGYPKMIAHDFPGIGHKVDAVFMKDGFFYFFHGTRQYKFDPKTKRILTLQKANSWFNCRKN
Briefly: Inhibition of recombinant human matrix metalloprotease-1.

Experiment [2] deals with Matrix metalloproteinase-9 (Homo sapiens, UniProt P14780). Put plainly: Inhibition of recombinant human matrix metalloprotease-9.
Matrix metalloproteinase-9, sequence (P14780 whole entry): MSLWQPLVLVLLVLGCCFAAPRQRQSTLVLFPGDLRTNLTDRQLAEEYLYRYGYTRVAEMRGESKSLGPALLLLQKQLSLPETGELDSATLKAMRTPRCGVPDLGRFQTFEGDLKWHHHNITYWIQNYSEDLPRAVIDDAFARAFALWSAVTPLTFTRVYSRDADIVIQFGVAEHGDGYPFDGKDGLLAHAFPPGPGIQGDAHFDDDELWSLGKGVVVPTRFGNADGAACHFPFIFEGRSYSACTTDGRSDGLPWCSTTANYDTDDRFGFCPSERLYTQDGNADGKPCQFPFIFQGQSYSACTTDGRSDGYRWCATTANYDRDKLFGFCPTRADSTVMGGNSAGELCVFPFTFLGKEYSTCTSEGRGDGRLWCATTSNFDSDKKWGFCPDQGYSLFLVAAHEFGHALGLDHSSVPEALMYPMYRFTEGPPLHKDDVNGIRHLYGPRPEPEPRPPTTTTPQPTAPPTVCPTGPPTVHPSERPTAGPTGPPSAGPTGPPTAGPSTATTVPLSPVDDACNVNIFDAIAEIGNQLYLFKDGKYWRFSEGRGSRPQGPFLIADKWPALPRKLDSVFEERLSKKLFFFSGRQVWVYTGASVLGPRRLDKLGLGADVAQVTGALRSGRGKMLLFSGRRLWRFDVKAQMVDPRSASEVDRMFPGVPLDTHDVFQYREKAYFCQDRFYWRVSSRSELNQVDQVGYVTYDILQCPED
In the next experiment the target is Stromelysin-1 (Homo sapiens, UniProt P08254). Briefly: Inhibition of recombinant human matrix metalloprotease-3.
Stromelysin-1, sequence (P08254 whole entry, the tested form may be a part): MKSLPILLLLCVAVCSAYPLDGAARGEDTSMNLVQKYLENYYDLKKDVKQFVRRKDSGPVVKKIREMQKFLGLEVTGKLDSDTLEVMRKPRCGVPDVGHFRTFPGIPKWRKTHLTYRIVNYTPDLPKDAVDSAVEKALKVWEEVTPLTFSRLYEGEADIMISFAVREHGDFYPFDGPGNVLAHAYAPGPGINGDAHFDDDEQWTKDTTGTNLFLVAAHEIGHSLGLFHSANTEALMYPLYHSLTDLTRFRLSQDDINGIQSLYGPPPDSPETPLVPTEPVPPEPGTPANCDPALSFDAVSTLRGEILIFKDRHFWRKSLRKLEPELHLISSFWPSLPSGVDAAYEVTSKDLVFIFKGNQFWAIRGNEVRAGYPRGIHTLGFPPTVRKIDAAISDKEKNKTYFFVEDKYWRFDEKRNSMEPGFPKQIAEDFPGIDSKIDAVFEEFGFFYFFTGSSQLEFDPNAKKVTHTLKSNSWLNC
The target in experiment [3] is T1, Disintegrin and metalloproteinase domain-containing protein 17. Put plainly: Inhibition of recombinant human TNF-alpha converting enzyme.

T1 sequence (P78536 whole entry, the tested form may be a part): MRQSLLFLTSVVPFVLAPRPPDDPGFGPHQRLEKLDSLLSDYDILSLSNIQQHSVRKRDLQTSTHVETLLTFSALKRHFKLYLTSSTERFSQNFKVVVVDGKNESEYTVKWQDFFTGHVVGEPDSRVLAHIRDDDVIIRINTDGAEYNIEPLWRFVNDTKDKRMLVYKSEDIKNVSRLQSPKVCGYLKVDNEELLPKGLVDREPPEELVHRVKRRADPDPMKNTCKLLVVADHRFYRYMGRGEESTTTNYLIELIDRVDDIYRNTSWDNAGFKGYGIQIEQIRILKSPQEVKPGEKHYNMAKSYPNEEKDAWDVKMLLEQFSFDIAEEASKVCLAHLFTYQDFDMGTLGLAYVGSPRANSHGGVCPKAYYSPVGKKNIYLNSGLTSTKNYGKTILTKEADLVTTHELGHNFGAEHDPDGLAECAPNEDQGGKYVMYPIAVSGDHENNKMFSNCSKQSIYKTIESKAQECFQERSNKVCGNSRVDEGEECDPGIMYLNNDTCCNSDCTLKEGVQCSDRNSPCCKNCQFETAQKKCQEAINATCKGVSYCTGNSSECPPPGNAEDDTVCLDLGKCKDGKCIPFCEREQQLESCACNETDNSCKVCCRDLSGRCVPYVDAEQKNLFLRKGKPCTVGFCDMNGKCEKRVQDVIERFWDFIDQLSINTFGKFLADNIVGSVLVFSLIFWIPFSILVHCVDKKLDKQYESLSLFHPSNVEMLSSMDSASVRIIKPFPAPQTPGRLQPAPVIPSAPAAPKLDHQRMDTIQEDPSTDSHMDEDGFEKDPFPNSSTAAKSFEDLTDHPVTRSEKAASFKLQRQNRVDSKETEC

As for `O=C(NO)[C@H]1[C@@H](O)[C@H](O)[C@@H](O)CN1S(=O)(=O)c1ccc(OC2CCCCC2)cc1`, the Ki – broadly, a measure of affinity in units of concentration, obtained from inhibition or displacement – in experiment [1] is 67 nM; on Interstitial collagenase, 100 nM; in experiment [2], 0.93 nM; on Stromelysin-1 it was 1.8 nM.
For the compound `COc1ccc(S(=O)(=O)N2C[C@H](O)[C@@H](O)[C@@H](O)[C@@H]2C(=O)NO)cc1`, in experiment [1], the Ki stood at 71 nM.
On to `O=C(NO)[C@H]1[C@@H](O)[C@H](O)[C@@H](O)CN1S(=O)(=O)c1ccc(Oc2ccccc2)cc1`, for which the Ki came to 2.3 nM in experiment [3], 8 nM at Interstitial collagenase and 0.51 nM at Stromelysin-1.
For the compound `COc1ccc(S(=O)(=O)N2C[C@@H](O)[C@H](O)[C@@H](O)[C@@H]2C(=O)NO)cc1`, the Ki was 340 nM in experiment [1] and 450 nM on Interstitial collagenase.
On to `CCOCCOc1ccc(S(=O)(=O)N2C[C@H](O)[C@@H](O)[C@H](O)[C@@H]2C(=O)NO)cc1`, for which the inhibition constant Ki is 8.7 nM in experiment [1], above 850 nM at Interstitial collagenase, 64 nM in experiment [2] and 42 nM at Stromelysin-1.
For `O=C(NO)[C@H]1[C@@H](O)[C@H](O)[C@@H](O)CN1S(=O)(=O)c1ccc(OCc2ccccc2)cc1`, in that order: 1.6 nM, 850 nM, 6.1 nM and 2.6 nM.
In the case of `COc1ccc(S(=O)(=O)N2C[C@H](O)[C@H](O)[C@@H](O)[C@@H]2C(=O)NO)cc1`, the Ki was 510 nM in experiment [1] and above 850 nM at Interstitial collagenase.
Take `COc1ccc(S(=O)(=O)N2C[C@H](O)[C@@H](O)[C@H](O)[C@@H]2C(=O)NO)cc1`: the results for the inhibition constant (Ki) (in experiment [1]; on Interstitial collagenase) were 12 nM and 25 nM, respectively.

(Values after ChEMBL document CHEMBL1144950, “Structure--activity relationships of azasugar-based MMP/ADAM inhibitors” (Bioorg Med Chem Lett, 2003).)
